Laboratory results from US10875855B2 (priority 2011, dated 2020).
Where two headings read alike, the source gives them in different places.

Assays:
[1] = tested on: influenza A virus (A/PR/8/34); assay: MDCK cytopathic effect (CPE) cell protection assay, ATP detection; format: cell-based
[2] = tested on: influenza A virus (A/PR/8/34); assay: microbe, parasite or virus in culture; format: cell-based
[3] = Influenza A virus, PR/8, MDCK, 72 h, Table 1, MDCK cells, A/PR/8/34, 72 hours, 50% cell protection, mean all, class symbol, read-out: MDCK IC50
[4] = Influenza A virus, PR/8, Table 1, mean all, class symbol, read-out: bDNA EC99
[5] = Influenza A virus, PR/8, Table 1, viral RNA 50% of control wells, mean all, class symbol, read-out: bDNA EC50
[6] = Table 1, mean all, class symbol
[7] = Table 1, MDCK cells, A/PR/8/34, 72 hours, 50% cell protection, mean all, class symbol, read-out: MDCK IC50
[8] = Table 1, viral RNA 50% of control wells, mean all, class symbol, read-out: bDNA EC50

SMILES | IC50 [1, 3] | EC99 [2, 4] | EC50 [2, 5] | further results
O=C(O)CC(Nc1nc(-c2c[nH]c3ncc(F)cc23)ncc1F)C12CCC(CC1)C2 (racemic) [Compound 95, (+/−)-3-(Bicyclo[2.2.1]heptan-1-yl)-3-(5-fluoro-2-(5-fluoro-1H-pyrrolo[2,3-b]pyridin-3-yl)pyrimidin-4-ylamino)propanoic acid] | < 300 nM | 0.3 to 3.3 µM | < 300 nM | –
CC(C)(C)C(Nc1nc(-c2c[nH]c3ncc(F)cc23)ncc1F)C1CC1C(=O)O (single isomer, unassigned) [Compound 51, 2-(1-((5-fluoro-2-(5-fluoro-1H-pyrrolo[2,3-b]pyridin-3-yl)pyrimidin-4-yl)amino)-2,2-dimethylpropyl)cyclopropanecarboxylic acid] | < 300 nM | – | < 300 nM | bDNA EC99 (uM) [2, 6]: C (EC99 (mean all)>3.3 μM)
CC(C)(C)C(Nc1nc(-c2c[nH]c3ncc(F)cc23)ncc1F)C1CC1C(=O)O (single isomer, unassigned) [Compound 52, 2-(1-((5-fluoro-2-(5-fluoro-1H-pyrrolo[2,3-b]pyridin-3-yl)pyrimidin-4-yl)amino)-2,2-dimethylpropyl)cyclopropanecarboxylic acid] | – | – | – | IC50 [1, 7]: < 300 nM; bDNA EC99 (uM) [2, 6]: B (0.3 μM≤EC99 (mean all)≤3.3 μM); EC50 [2, 8]: < 300 nM
CC(C)(C)[C@H](CC(=O)O)Nc1nc(-c2c[nH]c3ncc(Cl)cc23)ncc1F [Compound 3, (S)-3-((2-(5-chloro-1H-pyrrolo[2,3-b]pyridin-3-yl)-5-fluoropyrimidin-4-yl)amino)-4,4-dimethylpentanoic acid] | 300 to 3300 nM | > 3.3 µM | 300 to 3300 nM | –
CC(C)(C)[C@H](CC(=O)O)Nc1nc(-c2c[nH]c3ncc(F)cc23)ncc1F [Compound 4, (S)-3-((5-fluoro-2-(5-fluoro-1H-pyrrolo[2,3-b]pyridin-3-yl)pyrimidin-4-yl)amino)-4,4-dimethylpentanoic acid] | > 3300 nM | > 3.3 µM | > 3300 nM | –
CC(C)(C)[C@@H](CC(=O)O)Nc1nc(-c2n[nH]c3ncc(F)cc23)ncc1F [Compound 5, (R)-3-((5-fluoro-2-(5-fluoro-1H-pyrazolo[3,4-b]pyridin-3-yl)pyrimidin-4-yl)amino)-4,4-dimethylpentanoic acid] | < 300 nM | < 0.3 µM | < 300 nM | –
CC(C)(C)[C@@H](CC(=O)O)Nc1nc(-c2n[nH]c3ncc(F)cc23)c(F)cc1F [Compound 6, (R)-3-((3,5-difluoro-6-(5-fluoro-1H-pyrazolo[3,4-b]pyridin-3-yl)pyridin-2-yl)amino)-4,4-dimethylpentanoic acid] | < 300 nM | < 0.3 µM | < 300 nM | IC50 ([1]; Influenza A virus, PR/8, MDCK, exemplary data, MDCK cell protection, read-out: IC50): 4 nM; EC50 ([2]; Influenza A virus, PR/8, exemplary data, bDNA, read-out: EC50): 15 nM; EC99 ([2]; exemplary data, bDNA): 0.082 µM
CC(C)(C)[C@@H](CC(=O)O)Nc1nc(-c2c[nH]c3ncc(F)cc23)c(C#N)cc1F [Compound 7, (R)-3-(5-cyano-3-fluoro-6-(5-fluoro-1H-pyrrolo[2,3-b]pyridin-3-yl)pyridin-2-ylamino)-4,4-dimethylpentanoic acid] | < 300 nM | < 0.3 µM | < 300 nM | –
CC1([C@@H](CC(=O)O)Nc2nc(-c3c[nH]c4ncc(F)cc34)c(C#N)cc2F)CCCC1 [Compound 8, (R)-3-(5-cyano-3-fluoro-6-(5-fluoro-1H-pyrrolo[2,3-b]pyridin-3-yl)pyridin-2-ylamino)-3-(1-methylcyclopentyl)propanoic acid] | – | – | – | IC50 [1, 7]: < 300 nM; EC50 [2, 8]: < 300 nM
CC(C)(C)[C@@H](CS(=O)(=O)O)Nc1nc(-c2c[nH]c3ncc(Cl)cc23)ncc1F [Compound 10, (S)-2-((2-(5-chloro-1H-pyrrolo[2,3-b]pyridin-3-yl)-5-fluoropyrimidin-4-yl)amino)-3,3-dimethylbutane-1-sulfonic acid] | < 300 nM | < 0.3 µM | < 300 nM | –
CC(C)(C)[C@@H](CS(=O)(=O)O)Nc1nc(-c2c[nH]c3ncc(F)cc23)ncc1F [Compound 11, (S)-2-(5-fluoro-2-(5-fluoro-1H-pyrrolo[2,3-b]pyridin-3-yl)pyrimidin-4-ylamino)-3,3-dimethylbutane-1-sulfonic acid] | < 300 nM | < 0.3 µM | < 300 nM | –
CC1(C(CC(=O)O)Nc2nc(-c3c[nH]c4ncc(F)cc34)c(C#N)cc2F)CCCC1 (centres unmarked) [Compound 13] | < 300 nM | < 0.3 µM | < 300 nM | –
CC1([C@@H](CC(=O)O)Nc2nc(-c3c[nH]c4ncc(F)cc34)ncc2F)CCCC1 [Compound 14] | < 300 nM | < 0.3 µM | < 300 nM | –
CC1([C@H](CC(=O)O)Nc2nc(-c3c[nH]c4ncc(F)cc34)ncc2F)CCCC1 [Compound 15] | 300 to 3300 nM | > 3.3 µM | 300 to 3300 nM | –
CCC(C)(C)C(CC(=O)O)Nc1nc(-c2c[nH]c3ncc(F)cc23)ncc1F (centres unmarked) [Compound 16, 3-((5-fluoro-2-(5-fluoro-1H-pyrrolo[2,3-b]pyridin-3-yl)pyrimidin-4-yl)amino)-4,4-dimethylhexanoic acid] | < 300 nM | – | < 300 nM | bDNA EC99 (uM) [2, 6]: A (EC99 (mean all)<0.3 μM)
CCC(C)(C)C(CC(=O)O)Nc1nc(-c2c[nH]c3ncc(F)cc23)ncc1F (centres unmarked) [Compound 17, 3-((5-fluoro-2-(5-fluoro-1H-pyrrolo[2,3-b]pyridin-3-yl)pyrimidin-4-yl)amino)-4,4-dimethylhexanoic acid] | – | – | – | IC50 [1, 7]: 300 to 3300 nM; bDNA EC99 (uM) [2, 6]: C (EC99 (mean all)>3.3 μM); EC50 [2, 8]: 300 to 3300 nM
CCC(C)(C)C(CC(=O)O)Nc1nc(-c2c[nH]c3ncc(F)cc23)c(C#N)cc1F (centres unmarked) [Compound 18, 3-[[5-cyano-3-fluoro-6-(5-fluoro-1H-pyrrolo[2,3-b]pyridin-3-yl)-2-pyridyl]amino]-4,4-dimethyl-hexanoic acid] | < 300 nM | < 0.3 µM | < 300 nM | –
CNS(=O)(=O)C[C@@H](Nc1nc(-c2c[nH]c3ncc(F)cc23)ncc1F)C(C)(C)C [Compound 19, (S)-2-(5-fluoro-2-(5-fluoro-1H-pyrrolo[2,3-b]pyridin-3-yl)pyrimidin-4ylamino)-N,3,3-trimethylbutane-1-sulfonamide] | < 300 nM | < 0.3 µM | < 300 nM | –
CC(C)(C)[C@@H](CCC(=O)O)Nc1nc(-c2c[nH]c3ncc(F)cc23)ncc1F [Compound 20, (R)-4-((5-fluoro-2-(5-fluoro-1H-pyrrolo[2,3-b]pyridin-3-yl)pyrimidin-4-yl)amino)-5,5-dimethylhexanoic acid] | < 300 nM | < 0.3 µM | < 300 nM | –
CC(C)(C)[C@@H](CS(=O)(=O)NC1CC1)Nc1nc(-c2c[nH]c3ncc(F)cc23)ncc1F [Compound 21, (S)—N-Cyclopropyl-2-(5-fluoro-2-(5-fluoro-1H-pyrrolo[2,3-b]pyridin-3-yl)pyrimidin-4-ylamino)-3,3-dimethylbutane-1-sulfonamide] | < 300 nM | < 0.3 µM | < 300 nM | –
CC(C)(C)[C@@H](CS(N)(=O)=O)Nc1nc(-c2c[nH]c3ncc(F)cc23)ncc1F [Compound 22, (S)-2-(5-fluoro-2-(5-fluoro-1H-pyrrolo[2,3-b]pyridin-3-yl)pyrimidin-4-ylamino)-3,3-dimethylbutane-1-sulfonamide] | < 300 nM | 0.3 to 3.3 µM | < 300 nM | –
